Consider 5 compounds from patent publication US20080311047A1, “Multimetric Biosensors and Methods of Using Same” (priority 2005, published 2008).

The target of one assay is T1, LAT2 (Homo sapiens, UniProt Q9UHI5).
T1 construct: host or cells: Xenopus oocytes
T1 sequence (Q9UHI5 1-535): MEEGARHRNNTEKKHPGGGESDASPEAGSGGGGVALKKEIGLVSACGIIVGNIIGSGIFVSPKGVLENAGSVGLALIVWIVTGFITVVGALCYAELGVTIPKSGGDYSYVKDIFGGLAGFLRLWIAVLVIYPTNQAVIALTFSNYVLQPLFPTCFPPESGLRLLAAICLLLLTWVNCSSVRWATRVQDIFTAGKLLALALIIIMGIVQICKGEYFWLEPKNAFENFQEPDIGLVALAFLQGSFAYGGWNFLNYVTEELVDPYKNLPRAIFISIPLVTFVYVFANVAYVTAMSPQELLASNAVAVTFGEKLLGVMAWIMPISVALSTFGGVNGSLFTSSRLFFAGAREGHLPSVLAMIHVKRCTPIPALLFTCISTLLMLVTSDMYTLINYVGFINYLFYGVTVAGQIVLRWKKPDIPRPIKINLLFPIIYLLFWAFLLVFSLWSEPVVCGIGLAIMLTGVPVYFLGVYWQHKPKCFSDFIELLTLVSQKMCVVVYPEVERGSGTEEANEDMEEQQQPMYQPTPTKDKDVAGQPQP
To be noted: LAT2 in Xenopus oocytes (Pineda et al. 1999); cited from earlier work.

The test system of assay [1] is COS-7 cells. Put plainly: tryptophan uptake by COS-7 cell cultures in 96-well microplates monitored with FLIPW-CTYT. It counts as cell-based, monkey. To be noted: in words. How it is done:
(§1) Tissue Culture and Transfection: For cytosolic expression in COS-7 cells, the gene encoding CTYT was amplified by PCR with primers encoding unique BamHI and EcoRI restriction sites at the 5′ and 3′ end, respectively, and cloned into BamHI/EcoRI digested pcDNA3.1(+) vector (Invitrogen), resulting in plasmid pTK222. COS-7 cells were grown in Dulbecco's modified Eagle's medium (high glucose; DMEM, Gibco) with 10% fetal calf serum and 50 μg/ml penicillin and streptomycin (Gibco). Cells were cultured at 37° C. and 5% CO2. For imaging, cells were cultured in 8-well LabTekII German tissue culture glass slides (Nalg Nunc International) and transiently transfected at 50-70% confluence using Lipofectamine 2000 Reagent (Invitrogen) in Opti-MEM I reduced serum medium (Gibco). After transfection, cells were cultured for 16 hours in Opti-MEM followed by 3 hours in DMEM prior to imaging.
(§2) Microplate Assays: Adherent cells in 96-well microplates were washed once with 100 μl Tyrode's buffer (119 mM NaCl, 2.5 mM KCl, 2 mM CaCl2, 2 mM MgCl2, 25 mM HEPES, 30 mM glucose, pH 7.3-7.4).

For assay [2], the target named is T2, FLIPW-CTY (eCFP-TrpR-Venus) (Escherichia coli, UniProt P0A881).
T2 construct: made in house; host or cells: E. coli BL21(DE3)gold
Put plainly: In vitro FRET titration of FLIPW-CTY with tryptophan substrates. The note with it: for Kd: 20 mM MOPS pH 7.0, read-out: Affinity of FLIPW-CTY for tryptophan substrate. The class given is binding, E. coli. How it is done: (§3) In Vitro Characterization of FLIPW and FLIPpur Sensors: Purified sensor was added to a dilution series of ligand in 20 mM MOPS pH 7.0 (FLIPW) or 20 mM MES pH7.0 (FLIPpur) in the range of 10^−2 to 10^−6 M and analyzed in a monochromator microplate reader (Safire, Tecan, Austria; excitation 433/12 nm, emission 485/12 and 528/12 nm). Protein was diluted to give Venus/eYFP readouts of 20,000 to 30,000 at a manual gain between 70-75. By using the change in FRET ratio upon binding of ligand, binding constants (Kd) were determined by fitting the substrate titration curves to a single-site-binding isotherm. Formulas for decrease in ratio upon ligand binding:
(§4) R=Rmax−(n·[S])/(Kd+[S])·(Rmax−Rmin)
(§5) with [S], substrate concentration; n, number of equal binding sites; R, ratio; Rmax, maximum ratio in the absence of ligand; and Rmin, minimum ratio at saturation with ligand. Formula for increase in ratio upon ligand binding:
(§6) R=Rmin+(Rmax−Rmin)·(n·[S])/(Kd+[S])
(§7) with [S], substrate concentration; n, number of equal binding sites; R, ratio; Rmax, maximum ratio at saturation with ligand; and Rmin, minimum ratio in absence of ligand. Three independent protein preparations were analyzed and each protein preparation was analyzed in triplicate.

The subject of assay [3] is COS-7 cells. To be noted: read-out: apparent KM for combined transport and metabolism. As for the experimental part: as §1, §2
Another assay has as its target T3, human TAT1 (Homo sapiens, UniProt Q8TF71).
T3 construct: host or cells: Xenopus oocytes
T3 sequence (Q8TF71 1-515): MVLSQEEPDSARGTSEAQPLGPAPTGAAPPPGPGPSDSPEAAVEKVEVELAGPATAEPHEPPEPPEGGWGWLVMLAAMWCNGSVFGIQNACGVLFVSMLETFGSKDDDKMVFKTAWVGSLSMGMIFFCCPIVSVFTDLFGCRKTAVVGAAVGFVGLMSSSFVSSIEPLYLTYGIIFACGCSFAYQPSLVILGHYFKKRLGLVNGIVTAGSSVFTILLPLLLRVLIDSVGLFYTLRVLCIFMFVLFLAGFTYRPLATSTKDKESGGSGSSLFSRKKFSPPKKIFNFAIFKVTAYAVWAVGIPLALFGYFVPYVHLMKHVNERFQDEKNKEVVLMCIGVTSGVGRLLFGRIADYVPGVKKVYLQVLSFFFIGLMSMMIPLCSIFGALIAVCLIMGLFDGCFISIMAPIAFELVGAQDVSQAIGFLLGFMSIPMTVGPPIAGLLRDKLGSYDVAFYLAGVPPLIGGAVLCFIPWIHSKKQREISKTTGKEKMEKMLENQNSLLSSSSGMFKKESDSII
To be noted: human TAT1 in Xenopus oocytes (Kim et al. 2002); cited from earlier work.

Assay [4] deals with E. coli tryptophan operon repressor TrpR, wild-type, SEQ ID NO: 1. The note with it: Marmorstein et al. 1987; cited from earlier work.
The target of assay [5] is FLIPW-TCTY (TrpR-eCFP-TrpR-Venus fusion of E. coli tryptophan repressor TrpR, SEQ ID NO: 5) (Escherichia coli, UniProt P0A881). Kind of assay: L-tryptophan titration of FLIPW-TCTY by FRET ratio change. To be noted: 20 mM MOPS pH 7.0, apparent binding constant.
Assay [6] concerns the target FLIPW-CTY (eCFP-TrpR-Venus fusion of E. coli tryptophan repressor TrpR, SEQ ID NO: 3) (Escherichia coli, UniProt P0A881). Kind of assay: L-tryptophan analog titration of FLIPW-CTY by FRET ratio change, single-site-binding isotherm. The note with it: FLIPW-CTY Kd compared with free TrpR (Marmorstein et al. 1987); larger than free TrpR.
Source text: The protein sequence encoded on pTK164 was denoted FLIPW-CTY.
For assay [7], the target named is T4, FLIPW-CTYT (eCFP-TrpR-Venus-TrpR) (Escherichia coli, UniProt P0A881).
T4 construct: The gene products of pTK203, pTK204, and pTK205 were denoted FLIPW-TCTY, FLIPW-CTYT, and FLIPW-CTTY, respectively; made in house; host or cells: E. coli BL21(DE3)gold
Put plainly: In vitro FRET titration of FLIPW-CTYT with tryptophan substrates. The class given is binding, E. coli. The note with it: 20 mM MOPS pH 7.0; read-out: Affinity of FLIPW-CTYT for tryptophan substrate. How it is done: as §3, §4, §5, §6, §7

Assay [8] has as its system E. coli purine repressor PurR variant Arg190Gln. To be noted: Lu et al. 1998; cited from earlier work.
The target in assay [9] is T5, FLIPpur (His6-eCFP-PurR-eYFP fusion of E. coli purine repressor PurR, residues 56 to 341, Arg190Gln, Leu263Pro) (Escherichia coli, UniProt P0ACP7, L263P/R190Q).
T5 construct: expressed in E. coli BL21(DE3)gold, purified
Kind of assay: hypoxanthine titration of FLIPpur by FRET ratio change. It counts as binding.
Source text: FLIPW and FLIPpur constructs were harbored in E. coli BL21(DE3)gold and sensor proteins were produced and purified as described previously (Fehr et al. 2002).

T5 sequence (P0ACP7 56-341 R190Q/L263P): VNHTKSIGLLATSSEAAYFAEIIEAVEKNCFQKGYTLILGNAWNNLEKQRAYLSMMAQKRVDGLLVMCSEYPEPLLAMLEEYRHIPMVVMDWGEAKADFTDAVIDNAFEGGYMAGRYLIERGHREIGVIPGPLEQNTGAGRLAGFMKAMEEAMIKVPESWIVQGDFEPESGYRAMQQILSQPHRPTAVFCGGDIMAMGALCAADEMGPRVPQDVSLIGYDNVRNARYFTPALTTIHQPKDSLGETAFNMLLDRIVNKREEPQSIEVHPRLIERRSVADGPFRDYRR

Consider `N[C@@H](Cc1c[nH]c2ccccc12)C(=O)O` [L-tryptophan], for which the Tryptophan uptake affinity on LAT2 was 58 µM; on human TAT1 it was 450 µM. The “effective KM for combined tryptophan uptake and metabolism” value in the assay on COS-7 cells [1] is “in the micromolar range”. The Kd in assay [2] turned out to be 220 ± 20 µM; in assay [5], 20 µM; in assay [7] it was 210 ± 20 µM. In addition, in the assay with COS-7 cells [3], the Km came out at 0.88 ± 0.27 µM. Also, the affinity entry in assay [4] was “micromolar affinity”. In assay [6], the “apparent Kd relative to free TrpR” value is reported as “about an order of magnitude”.

With `N[C@H](Cc1c[nH]c2ccccc12)C(=O)O` [D-tryptophan], in assay [2], the Kd turned out to be 3100 ± 300 µM. In addition, the “Concentration giving decrease of FRET ratio relative to L-tryptophan” value in assay [2] (titration of FLIPW-CTY, higher concentrations than L-tryptophan) is given as “about 5 fold”.

With `O=c1[nH]cnc2nc[nH]c12` [hypoxanthine], the “Kd of free PurR Arg190Gln compared with FLIPpur” value in [8] is listed as “identical to that of free PurR Arg190Gln”. The Kd in assay [9] stood at 5.6 ± 0.7 µM.

Take `N[C@@H](Cc1c[nH]c2ccc(O)cc12)C(=O)O` [L-5-hydroxy-tryptophan]: the Kd in assay [2] came to 6000 ± 800 µM.

With `Cc1ccc2[nH]cc(C[C@H](N)C(=O)O)c2c1` [L-5-methyl-tryptophan], the Kd in [2] is 60 ± 10 µM.
